Assay results published in patent publication US12565475B2, “Small molecule compound inhibiting signal transmission path of TLR7 and TLR9 and use thereof” (AJOU UNIVERSITY INDUSTRY-ACADEMIC COOPERATION FOUNDATION, priority 2019, dated 2026).

Legend:
TLR4 = target: T1, TLR4 (Mus musculus, UniProt Q9QUK6); experiment: TLR4-mediated TNF-α secretion (LPS), ELISA; type: cell-based, murine; details: RAW 264.7, 10 or 20 μM
T1 construct: endogenous in cells; host or cells: RAW 264.7
T1 sequence (Q9QUK6 26-835): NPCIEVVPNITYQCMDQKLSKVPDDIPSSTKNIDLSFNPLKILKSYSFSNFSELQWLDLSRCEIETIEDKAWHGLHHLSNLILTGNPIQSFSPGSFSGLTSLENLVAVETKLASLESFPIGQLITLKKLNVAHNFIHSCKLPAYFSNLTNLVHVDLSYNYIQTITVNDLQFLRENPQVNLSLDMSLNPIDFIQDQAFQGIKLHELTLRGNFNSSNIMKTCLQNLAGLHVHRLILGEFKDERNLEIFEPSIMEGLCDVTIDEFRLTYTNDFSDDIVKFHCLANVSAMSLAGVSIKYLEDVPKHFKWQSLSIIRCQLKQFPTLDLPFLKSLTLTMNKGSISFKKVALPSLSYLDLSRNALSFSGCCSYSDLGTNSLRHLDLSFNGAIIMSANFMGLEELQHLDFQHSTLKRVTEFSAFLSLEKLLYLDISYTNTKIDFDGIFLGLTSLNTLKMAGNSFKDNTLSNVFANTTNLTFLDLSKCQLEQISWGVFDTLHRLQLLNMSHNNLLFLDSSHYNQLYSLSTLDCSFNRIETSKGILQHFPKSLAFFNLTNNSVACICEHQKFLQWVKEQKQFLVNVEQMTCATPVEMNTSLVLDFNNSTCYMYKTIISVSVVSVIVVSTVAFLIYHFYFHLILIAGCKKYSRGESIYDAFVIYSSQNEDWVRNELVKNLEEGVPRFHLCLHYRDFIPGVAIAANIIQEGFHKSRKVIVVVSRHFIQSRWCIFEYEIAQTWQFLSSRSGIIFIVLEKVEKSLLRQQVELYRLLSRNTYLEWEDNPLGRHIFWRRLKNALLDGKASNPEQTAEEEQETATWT
T1 sequence (Q9JHF9 19-160 partner): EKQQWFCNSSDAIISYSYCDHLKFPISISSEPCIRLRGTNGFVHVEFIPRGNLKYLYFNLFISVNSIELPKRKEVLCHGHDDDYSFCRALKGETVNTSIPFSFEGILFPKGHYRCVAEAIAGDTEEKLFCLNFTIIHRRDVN
Procedure: (§1) Agonists specific to TLR1/TLR2 (Pam3CSK4), TLR2/TLR6 (FSL-1), TLR3 (Poly I:C), TLR7 (imiquimod), and TLR8 (TL8-506) were purchased from InvivoGen Ltd. (Hong-Kong, China), and a TLR4-specific agonist (LPS from E. coli O111:B4) was purchased from Sigma-Aldrich, Inc. For TLR9-specific stimulation, class C CpG-ODN (ODN2395, 5′-TCGTCGTTTTCGGCGCGCGCCG-3′) having full phosphorothioate backbone modification was synthesized (Bioneer, Inc., Daejeon, Korea). All TLR agonists were dissolved in deionized water and applied to a culture media for TLR activation. The cells were treated with test compounds or a control medium for 1 hour, and then stimulated with a TLR agonist for 4 hours, or 24 hours in the case of poly(I:C), and the cytokine secretion was monitored.
(§2) RAW 264.7 or differentiated THP-1 cell lines were seeded onto a 96-well culture plate at a density of 2×10^4 cells/well. The cells were treated with test compounds for 1 hour followed by the stimulation with TLR agonists for 4 hours. The supernatant was transferred to pre-coated assay plates, and the secretion levels of mouse and human TNF-α were measured by respective ELISA kits (Invitrogen, Carlsbad, CA, USA). […] Absorbance was measured by a microplate reader spectrophotometer (Molecular Devices, Inc., San Jose, CA, USA), and data was interpolated from a standard curve using SoftMax Pro 5.3 software (Molecular Devices, Inc.). […]

TLR3 = target: T2, TLR3 (Mus musculus, UniProt Q99MB1); experiment: TLR3-mediated TNF-α secretion (poly I:C), ELISA; type: cell-based, murine; details: RAW 264.7, 10 or 20 μM, poly I:C 24 hours
T2 construct: endogenous in cells; host or cells: RAW 264.7
T2 sequence (Q99MB1 26-905): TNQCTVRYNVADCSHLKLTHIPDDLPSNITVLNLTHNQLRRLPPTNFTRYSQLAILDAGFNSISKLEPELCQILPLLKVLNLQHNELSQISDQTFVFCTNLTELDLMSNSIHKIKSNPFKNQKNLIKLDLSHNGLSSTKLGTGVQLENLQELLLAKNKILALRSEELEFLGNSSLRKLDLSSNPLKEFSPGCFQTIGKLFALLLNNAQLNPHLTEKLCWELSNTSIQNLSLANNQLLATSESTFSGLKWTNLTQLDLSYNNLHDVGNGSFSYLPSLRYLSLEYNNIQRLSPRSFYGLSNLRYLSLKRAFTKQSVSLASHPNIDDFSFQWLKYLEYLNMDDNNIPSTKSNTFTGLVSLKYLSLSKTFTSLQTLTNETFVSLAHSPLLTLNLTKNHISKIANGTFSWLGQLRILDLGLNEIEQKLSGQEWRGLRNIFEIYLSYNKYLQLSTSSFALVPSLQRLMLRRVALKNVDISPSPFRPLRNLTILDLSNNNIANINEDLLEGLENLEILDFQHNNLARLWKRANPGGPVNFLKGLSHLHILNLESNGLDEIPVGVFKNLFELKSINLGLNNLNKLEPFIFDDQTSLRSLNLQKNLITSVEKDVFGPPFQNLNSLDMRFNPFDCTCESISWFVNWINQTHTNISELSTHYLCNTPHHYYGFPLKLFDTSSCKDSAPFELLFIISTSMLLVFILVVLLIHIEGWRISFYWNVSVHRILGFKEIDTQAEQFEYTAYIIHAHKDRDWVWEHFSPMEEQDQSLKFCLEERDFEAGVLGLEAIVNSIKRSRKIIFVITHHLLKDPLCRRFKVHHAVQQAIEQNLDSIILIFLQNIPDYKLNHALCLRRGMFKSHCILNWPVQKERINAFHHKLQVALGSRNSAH
Procedure: as §1, §2

effect on TLR4-mediated cytokine (TNF-α) production (TLR4): no effect
TLR3-mediated TNF-α secretion (TLR3): moderately reduced
Structure (SMILES): COc1ccc(CNc2ncc(-c3ccc4c(c3)OCO4)n2C)c(OC)c1 [TIC10-7, 5-(2H-1,3-benzodioxol-5-yl)-N-[(2,4-dimethoxyphenyl)methyl]-1-methyl-1H-imidazol-2-amine]
